# In PubChem BioAssay (NCI):
#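 These data come from cells grown in 96-well plates and exposed to compound for 48 hours at five concentrations. TGI marks complete inhibition of growth.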
# What was measured:
# Assay in all cases: DTP human tumour cell line panel, 48 h
# [1] = system: SW-620 colon
# [2] = system: SNB-75 CNS
# [3] = system: A498 renal
# [4] = system: RPMI-8226 leukemia
# [5] = system: NCI-H226 lung
# [6] = system: KM20L2 colon
# [7] = system: RXF-631 renal
# [8] = system: MOLT-4 leukemia
# [9] = system: SF-268 CNS
# [10] = system: OVCAR-4 ovarian
# [11] = system: SN12C renal
# [12] = system: M14 melanoma
# [13] = system: SNB-19 CNS
# [14] = system: SF-295 CNS
# [15] = system: ACHN renal
# [16] = system: SR leukemia
# [17] = system: COLO 205 colon
# [18] = system: LOX IMVI melanoma
# [19] = system: 786-0 renal
# [20] = system: U251 CNS
# [21] = system: NCI-H522 lung
# [22] = system: XF 498 CNS
# [23] = system: HOP-18 NSCLC
# [24] = system: DMS 114 small cell lung
# [25] = system: LXFL 529 NSCLC
# [26] = system: HOP-92 NSCLC
# [27] = system: SK-MEL-2 melanoma
# [28] = system: DMS 273 small cell lung
# [29] = system: OVCAR-5 ovarian
# [30] = system: SK-MEL-5 melanoma
# [31] = system: HCT-15 colon
# [32] = system: DLD-1 colon
# [33] = system: SK-MEL-28 melanoma
# [34] = system: TK-10 renal
# [35] = system: UACC-257 melanoma
# [36] = system: HCT-116 colon
# [37] = system: CCRF-CEM leukemia
# [38] = system: A549 NSCLC
# [39] = system: NCI-H460 lung
# [40] = system: HL-60(TB) leukemia
# [41] = system: RXF 393 renal
# [42] = system: HCC-2998 colon
# [43] = system: CAKI-1 renal
# [44] = system: HT29 colon
# [45] = system: SNB-78 CNS
# [46] = system: HOP-62 NSCLC
# [47] = system: SK-OV-3 ovarian
# [48] = system: NCI-H23 lung
# [49] = system: MALME-3M melanoma
# [50] = system: KM12 colon
# [51] = system: K-562 leukemia
# [52] = system: IGROV1 ovarian
# [53] = system: SF-539 CNS
# [54] = system: UO-31 renal
# [55] = system: OVCAR-8 ovarian
# [56] = system: EKVX NSCLC
# [57] = system: M19-MEL melanoma
# [58] = system: UACC-62 melanoma
# [59] = system: OVCAR-3 ovarian
smiles,measurement,setting,value
O=[N+]([O-])c1nccn1COCCO,TGI,[1],> 100 µM
same,TGI,[2],> 100 µM
same,TGI,[3],> 100 µM
same,TGI,[4],> 100 µM
same,TGI,[5],> 100 µM
same,TGI,[6],> 100 µM
same,TGI,[7],> 100 µM
same,TGI,[8],> 100 µM
same,TGI,[9],> 100 µM
same,TGI,[10],> 100 µM
same,TGI,[11],> 100 µM
same,TGI,[12],> 100 µM
same,TGI,[13],> 100 µM
same,TGI,[14],> 100 µM
same,TGI,[15],> 100 µM
same,TGI,[16],> 100 µM
same,TGI,[17],> 100 µM
same,TGI,[18],> 100 µM
same,TGI,[19],> 100 µM
same,TGI,[20],> 100 µM
same,TGI,[21],> 100 µM
same,TGI,[22],> 100 µM
same,TGI,[23],97.8 µM
same,TGI,[24],> 100 µM
same,TGI,[25],> 100 µM
same,TGI,[26],> 100 µM
same,TGI,[27],> 100 µM
same,TGI,[28],> 100 µM
same,TGI,[29],> 100 µM
same,TGI,[30],> 100 µM
same,TGI,[31],> 100 µM
same,TGI,[32],> 100 µM
same,TGI,[33],> 100 µM
same,TGI,[34],> 100 µM
same,TGI,[35],> 100 µM
same,TGI,[36],> 100 µM
same,TGI,[37],> 100 µM
same,TGI,[38],> 100 µM
same,TGI,[39],> 100 µM
same,TGI,[40],> 100 µM
same,TGI,[41],> 100 µM
same,TGI,[42],> 100 µM
same,TGI,[43],> 100 µM
same,TGI,[44],> 100 µM
same,TGI,[45],> 100 µM
same,TGI,[46],> 100 µM
same,TGI,[47],> 100 µM
same,TGI,[48],> 100 µM
same,TGI,[49],> 100 µM
same,TGI,[50],> 100 µM
CSc1cc(-c2cc3ccccc3o2)oc(=O)c1C#N,TGI,[1],> 100 µM
same,TGI,[2],> 100 µM
same,TGI,[3],> 100 µM
same,TGI,[4],> 100 µM
same,TGI,[5],4.31 µM
same,TGI,[6],> 100 µM
same,TGI,[7],> 100 µM
same,TGI,[8],> 100 µM
same,TGI,[9],> 100 µM
same,TGI,[51],> 100 µM
same,TGI,[10],> 100 µM
same,TGI,[11],> 100 µM
same,TGI,[12],> 100 µM
same,TGI,[13],> 100 µM
same,TGI,[14],> 100 µM
same,TGI,[15],> 100 µM
same,TGI,[52],> 100 µM
same,TGI,[16],50 µM
same,TGI,[17],> 100 µM
same,TGI,[18],> 100 µM
same,TGI,[20],> 100 µM
same,TGI,[22],> 100 µM
same,TGI,[23],> 100 µM
same,TGI,[24],> 100 µM
same,TGI,[25],> 100 µM
same,TGI,[26],2.33 µM
same,TGI,[27],> 100 µM
same,TGI,[53],> 100 µM
same,TGI,[28],> 100 µM
same,TGI,[29],> 100 µM
same,TGI,[30],> 100 µM
same,TGI,[31],> 100 µM
same,TGI,[32],> 100 µM
same,TGI,[54],> 100 µM
same,TGI,[33],> 100 µM
same,TGI,[34],73.4 µM
same,TGI,[35],> 100 µM
same,TGI,[36],> 100 µM
same,TGI,[37],> 100 µM
same,TGI,[38],> 100 µM
same,TGI,[39],> 100 µM
same,TGI,[40],> 100 µM
same,TGI,[41],> 100 µM
same,TGI,[42],> 100 µM
same,TGI,[43],> 100 µM
same,TGI,[44],> 100 µM
same,TGI,[45],> 100 µM
same,TGI,[48],> 100 µM
same,TGI,[55],> 100 µM
same,TGI,[49],> 100 µM
same,TGI,[56],> 100 µM
same,TGI,[50],> 100 µM
CC1=C(C(=O)CC(=O)C(=O)Nc2ccc(Cl)cc2C)Sc2ccccc2N1,TGI,[1],> 100 µM
same,TGI,[57],> 100 µM
same,TGI,[2],> 100 µM
same,TGI,[3],> 100 µM
same,TGI,[4],> 100 µM
same,TGI,[6],> 100 µM
same,TGI,[7],> 100 µM
same,TGI,[8],> 77.1 µM
same,TGI,[9],> 100 µM
same,TGI,[51],> 100 µM
same,TGI,[10],> 100 µM
same,TGI,[11],> 100 µM
same,TGI,[12],> 100 µM
same,TGI,[13],> 100 µM
same,TGI,[14],> 100 µM
same,TGI,[15],> 100 µM
same,TGI,[52],> 100 µM
same,TGI,[17],> 100 µM
same,TGI,[18],> 100 µM
same,TGI,[19],> 100 µM
same,TGI,[20],> 100 µM
same,TGI,[21],> 100 µM
same,TGI,[22],> 100 µM
same,TGI,[58],> 100 µM
same,TGI,[23],> 100 µM
same,TGI,[24],> 100 µM
same,TGI,[25],> 100 µM
same,TGI,[26],74.7 µM
same,TGI,[27],> 100 µM
same,TGI,[53],> 100 µM
same,TGI,[28],> 100 µM
same,TGI,[29],> 100 µM
same,TGI,[59],> 100 µM
same,TGI,[30],> 100 µM
same,TGI,[31],> 100 µM
same,TGI,[32],> 100 µM
same,TGI,[54],> 100 µM
same,TGI,[33],> 100 µM
same,TGI,[34],> 100 µM
same,TGI,[35],> 100 µM
same,TGI,[36],> 100 µM
same,TGI,[37],> 100 µM
same,TGI,[38],> 100 µM
same,TGI,[39],> 100 µM
same,TGI,[40],> 100 µM
same,TGI,[41],> 100 µM
same,TGI,[42],> 100 µM
same,TGI,[43],> 100 µM
same,TGI,[44],> 100 µM
same,TGI,[45],> 100 µM
same,TGI,[46],> 100 µM
same,TGI,[47],> 100 µM
same,TGI,[48],> 100 µM
same,TGI,[55],> 100 µM
same,TGI,[49],> 100 µM
same,TGI,[56],> 100 µM
same,TGI,[50],> 100 µM
